Source: publication PMC10584170, “Machine learning-based phenotypic imaging to characterise the targetable biology of Plasmodium falciparum male gametocytes for the development of transmission-blocking antimalarials” (PLOS Pathogens, 2023)
Read-outs that look alike come from different tables or passages of the source.

Key:
HepG2 cells = experiment: HepG2 cytotoxicity counter-screen; conditions: cytotoxic activity against HepG2 cells
[1] = test system: P. falciparum male gametocytes; experiment: P. falciparum Dual Gamete Formation Assay (PfDGFA), male readout (exflagellation); assay type: cell-based, Plasmodium falciparum NF54; conditions: for Selectivity Ratio M: HepG2 Tox50 versus male IC50; for IC50: PfDGFA, 24 h incubation with gametocytes before induction, exflagellation readout, read-out: Male IC50; for HitlevelM: number of replicates with >50% inhibition in the male readout
Method in brief: (§1)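 Read-outs are automated image counts of exflagellation centres (brightfield, 10 frames over 1 s) and Pfs25-positive female gametes (Cy3 fluorescence).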

[2] = test system: P. falciparum female gametocytes; experiment: P. falciparum Dual Gamete Formation Assay (PfDGFA), female readout (Pfs25-positive female gametes); assay type: cell-based, Plasmodium falciparum NF54; conditions: for Selectivity ratio F: HepG2 Tox50 versus female IC50; for IC50: PfDGFA, 24 h incubation with gametocytes before induction, female gamete readout, read-out: Female IC50; for HitlevelF: number of replicates with >50% inhibition in the female readout
Method in brief: as §1

[3] = Plasmodium falciparum, 2µM, 24h preincubation with gametocytes, average of replicates, read-out: Average inhibition male (%)
[4] = Plasmodium falciparum, 2µM, 24h preincubation with gametocytes, replicate R1, read-out: % inhibition male (individual replicates) R1
[5] = Plasmodium falciparum, 2µM, 24h preincubation with gametocytes, replicate R2, read-out: % inhibition male (individual replicates) R2
[6] = Plasmodium falciparum, 2µM, 24h preincubation with gametocytes, replicate R3, read-out: % inhibition male (individual replicates) R3
[7] = Plasmodium falciparum, 2µM, 24h preincubation with gametocytes, replicate R4, read-out: % inhibition male (individual replicates) R4
[8] = Plasmodium falciparum, 2µM, 24h preincubation with gametocytes, average of replicates, read-out: Average inhibition female (%)
[9] = Plasmodium falciparum, 2µM, 24h preincubation with gametocytes, replicate R1, read-out: % inhibition female (individual replicates) R1
[10] = Plasmodium falciparum, 2µM, 24h preincubation with gametocytes, replicate R2, read-out: % inhibition female (individual replicates) R2
[11] = Plasmodium falciparum, 2µM, 24h preincubation with gametocytes, replicate R3, read-out: % inhibition female (individual replicates) R3
[12] = Plasmodium falciparum, 2µM, 24h preincubation with gametocytes, replicate R4, read-out: % inhibition female (individual replicates) R4
[13] = PfDGFA at 2µM, 24h preincubation with gametocytes, average of replicates
[14] = PfDGFA at 2µM, 24h preincubation with gametocytes, replicate R1
[15] = PfDGFA at 2µM, 24h preincubation with gametocytes, replicate R3
[16] = PfDGFA at 2µM, 24h preincubation with gametocytes, replicate R4

Row | IC50 ([1]; Plasmodium falciparum) [nM] | IC50 ([2]; Plasmodium falciparum) [nM] | Structure (SMILES) | Tox50 (HepG2 cells) [µM] | Selectivity Ratio M [1] | inhibition at 2 µM [1, 3] [%] | inhibition at 2 µM [1, 4] [%] | inhibition at 2 µM [1, 5] [%] | inhibition at 2 µM [1, 6] [%] | inhibition at 2 µM [1, 7] [%] | Selectivity ratio F [2] | inhibition at 2 µM [2, 8] [%] | inhibition at 2 µM [2, 9] [%] | inhibition at 2 µM [2, 10] [%] | inhibition at 2 µM [2, 11] [%] | inhibition at 2 µM [2, 12] [%] | HitlevelM ([1]; 2µM) | HitlevelF ([2]; 2µM) | further results
1 | 510 | 1470 | CN(C)CCCn1c(N)c(-c2nc3ccccc3[nH]2)c2nc(C#N)c(C#N)nc21 [TCMDC-123729] | 8.13 | 16 | 100 | 96.8 | 102 | 97.3 | 104 | 5.55 | 94.8 | 95.1 | 89.6 | 99.5 | 95.1 |  |  | 
2 | 910 | 4890 | C=CCNc1cc(-c2ccccn2)nc(-c2ccccn2)n1 [TCMDC-123787] | 12.58 | 13.76 | 94.8 | 93.1 | 94.1 | 97.8 | 94.1 | 2.57 | 33.1 | 29.8 | 30 | 14.9 | 57.6 |  |  | 
3 | 590 | 8840 | CN1CCN(c2ccc(Nc3c4ccccc4nc4ccccc34)cc2)CC1 [TCMDC-123912] | 26.65 | 45.1 |  |  |  |  |  | 3.01 |  |  |  |  |  |  |  | HitlevelM ([1]; 2µM, 24h preincubation): 3; inhibition at 2 µM ([1]; Plasmodium falciparum, 2µM, 24h preincubation with gametocytes prior to induction of gametogenesis, average of replicates, read-out: Average inhibition male (%)): 62.8%; inhibition at 2 µM ([1]; Plasmodium falciparum, 2µM, 24h preincubation with gametocytes prior to induction of gametogenesis, replicate R1, read-out: % inhibition male (individual replicates) R1): 83%; inhibition at 2 µM ([1]; Plasmodium falciparum, 2µM, 24h preincubation with gametocytes prior to induction of gametogenesis, replicate R2, read-out: % inhibition male (individual replicates) R2): 83.6%; inhibition at 2 µM ([1]; Plasmodium falciparum, 2µM, 24h preincubation with gametocytes prior to induction of gametogenesis, replicate R3, read-out: % inhibition male (individual replicates) R3): 12.9%; inhibition at 2 µM ([1]; Plasmodium falciparum, 2µM, 24h preincubation with gametocytes prior to induction of gametogenesis, replicate R4, read-out: % inhibition male (individual replicates) R4): 71.6%; HitlevelF ([2]; 2µM, 24h preincubation): 0; inhibition at 2 µM ([2]; Plasmodium falciparum, 2µM, 24h preincubation with gametocytes prior to induction of gametogenesis, average of replicates, read-out: Average inhibition female (%)): 9.1%; inhibition at 2 µM ([2]; Plasmodium falciparum, 2µM, 24h preincubation with gametocytes prior to induction of gametogenesis, replicate R1, read-out: % inhibition female (individual replicates) R1): 23.8%; inhibition at 2 µM ([2]; Plasmodium falciparum, 2µM, 24h preincubation with gametocytes prior to induction of gametogenesis, replicate R2, read-out: % inhibition female (individual replicates) R2): 8%; inhibition at 2 µM ([2]; Plasmodium falciparum, 2µM, 24h preincubation with gametocytes prior to induction of gametogenesis, replicate R3, read-out: % inhibition female (individual replicates) R3): 0.7%; inhibition at 2 µM ([2]; Plasmodium falciparum, 2µM, 24h preincubation with gametocytes prior to induction of gametogenesis, replicate R4, read-out: % inhibition female (individual replicates) R4): 4.1%
4 |  |  | COc1ccc(C[C@H](N)C(=O)N[C@H]2[C@@H](O)[C@H](n3cnc4c(N(C)C)ncnc43)O[C@@H]2CO)cc1.Cl [TCMDC-123927] | 2.01 | 4.87 |  |  |  |  |  | 0.5 |  |  |  |  |  | 4 | 1 | Average inhibition male (%) [1, 13]: 79.6%; % inhibition male (individual replicates) R1 [1, 14]: 87.8%; % inhibition male (individual replicates) R3 [1, 15]: 64.7%; % inhibition male (individual replicates) R4 [1, 16]: 82.2%; IC50 [1]: 410 nM; Average inhibition female (%) [2, 13]: 38.8%; % inhibition female (individual replicates) R1 [2, 14]: 27.9%; % inhibition female (individual replicates) R3 [2, 15]: 10.7%; % inhibition female (individual replicates) R4 [2, 16]: 72.0%; IC50 [2]: 4000 nM
5 | 980 | 740 | CCc1cc2c(Sc3nnc(N)s3)ncnc2s1 [TCMDC-123993] | 61 | 62.08 |  |  |  |  |  | 82.32 |  |  |  |  |  | 4 | 3 | inhibition at 2 µM ([1]; Plasmodium falciparum, PfDGFA at 2µM, 24h preincubation with gametocytes, average of replicates, read-out: Average inhibition male (%)): 88.1%; inhibition at 2 µM ([1]; Plasmodium falciparum, PfDGFA at 2µM, 24h preincubation with gametocytes, replicate R1, read-out: % inhibition male (individual replicates) R1): 91.2%; inhibition at 2 µM ([1]; Plasmodium falciparum, PfDGFA at 2µM, 24h preincubation with gametocytes, replicate R2, read-out: % inhibition male (individual replicates) R2): 88.6%; inhibition at 2 µM ([1]; Plasmodium falciparum, PfDGFA at 2µM, 24h preincubation with gametocytes, replicate R3, read-out: % inhibition male (individual replicates) R3): 87.9%; inhibition at 2 µM ([1]; Plasmodium falciparum, PfDGFA at 2µM, 24h preincubation with gametocytes, replicate R4, read-out: % inhibition male (individual replicates) R4): 84.9%; inhibition at 2 µM ([2]; Plasmodium falciparum, PfDGFA at 2µM, 24h preincubation with gametocytes, average of replicates, read-out: Average inhibition female (%)): 62.7%; inhibition at 2 µM ([2]; Plasmodium falciparum, PfDGFA at 2µM, 24h preincubation with gametocytes, replicate R1, read-out: % inhibition female (individual replicates) R1): 49.4%; inhibition at 2 µM ([2]; Plasmodium falciparum, PfDGFA at 2µM, 24h preincubation with gametocytes, replicate R2, read-out: % inhibition female (individual replicates) R2): 83%; inhibition at 2 µM ([2]; Plasmodium falciparum, PfDGFA at 2µM, 24h preincubation with gametocytes, replicate R3, read-out: % inhibition female (individual replicates) R3): 66.2%; inhibition at 2 µM ([2]; Plasmodium falciparum, PfDGFA at 2µM, 24h preincubation with gametocytes, replicate R4, read-out: % inhibition female (individual replicates) R4): 52.3%
